For orientation: IC50 means the concentration at which inhibition is half-maximal.

The values that follow come from ChEMBL document CHEMBL1933021, “Novel and selective spiroindoline-based inhibitors of Sky kinase” (Bioorg Med Chem Lett, 2012).

For assay [1], the target named is Tyrosine-protein kinase ABL1 (Homo sapiens, UniProt P00519). Nature of the assay: Inhibition of Abl.
The target of assay [2] is Cyclin-dependent kinase 2 (Homo sapiens, UniProt P24941). Nature of the assay: Inhibition of Cdk2.
The target of assay [3] is T1, Serine/threonine-protein kinase Chk1 (Homo sapiens, UniProt O14757).
T1 sequence (O14757 whole entry): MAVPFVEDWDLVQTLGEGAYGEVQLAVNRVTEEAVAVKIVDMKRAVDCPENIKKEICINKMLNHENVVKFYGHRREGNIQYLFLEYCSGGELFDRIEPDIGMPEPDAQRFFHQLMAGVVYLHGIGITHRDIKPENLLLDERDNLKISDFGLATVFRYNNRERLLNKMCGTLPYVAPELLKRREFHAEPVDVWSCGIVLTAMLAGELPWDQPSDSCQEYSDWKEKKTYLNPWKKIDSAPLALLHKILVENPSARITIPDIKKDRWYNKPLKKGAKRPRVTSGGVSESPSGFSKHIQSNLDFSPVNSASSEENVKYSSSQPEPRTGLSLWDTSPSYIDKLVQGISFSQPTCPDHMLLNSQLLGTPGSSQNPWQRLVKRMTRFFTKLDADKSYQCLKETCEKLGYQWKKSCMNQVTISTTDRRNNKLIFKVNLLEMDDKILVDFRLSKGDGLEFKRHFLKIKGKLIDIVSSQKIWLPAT
Nature of the assay: Inhibition of Chk1.

Assay [4] deals with Serine/threonine-protein kinase Chk2 (Homo sapiens, UniProt O96017). Nature of the assay: Inhibition of Chk2.
Assay [5] is described as follows: Inhibition of CK2.
Assay [6] has as its target Glycogen synthase kinase-3 beta (Homo sapiens, UniProt P49841). Nature of the assay: Inhibition of Gsk3beta.
For assay [7], the target named is T2, Inhibitor of nuclear factor kappa-B kinase subunit epsilon (Homo sapiens, UniProt Q14164).
T2 sequence (Q14164 whole entry): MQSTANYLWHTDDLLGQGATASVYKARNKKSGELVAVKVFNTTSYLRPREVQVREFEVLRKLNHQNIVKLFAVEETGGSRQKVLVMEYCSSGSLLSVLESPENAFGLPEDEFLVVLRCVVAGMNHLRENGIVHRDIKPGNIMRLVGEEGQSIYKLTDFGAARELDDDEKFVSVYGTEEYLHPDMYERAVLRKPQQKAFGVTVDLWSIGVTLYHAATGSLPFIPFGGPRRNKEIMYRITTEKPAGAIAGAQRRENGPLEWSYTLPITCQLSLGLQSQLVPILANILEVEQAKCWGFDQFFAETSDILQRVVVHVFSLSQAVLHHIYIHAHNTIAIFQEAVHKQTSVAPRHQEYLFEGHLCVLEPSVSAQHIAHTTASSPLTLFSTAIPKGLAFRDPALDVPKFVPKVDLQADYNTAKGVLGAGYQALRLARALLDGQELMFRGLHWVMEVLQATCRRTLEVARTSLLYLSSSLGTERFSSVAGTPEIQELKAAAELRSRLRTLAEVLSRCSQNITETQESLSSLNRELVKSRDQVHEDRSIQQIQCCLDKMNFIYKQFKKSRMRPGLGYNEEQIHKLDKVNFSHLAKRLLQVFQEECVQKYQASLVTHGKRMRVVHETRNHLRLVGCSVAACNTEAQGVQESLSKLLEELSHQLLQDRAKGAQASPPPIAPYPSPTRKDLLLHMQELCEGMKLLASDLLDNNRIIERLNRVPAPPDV
Nature of the assay: Inhibition of IKKi.

Assay [8] has as its target MAP kinase-activated protein kinase 2 (Homo sapiens, UniProt P49137). Nature of the assay: Inhibition of MAPKAP-2.
In assay [9] the target is Serine/threonine-protein kinase PAK 4 (Homo sapiens, UniProt O96013). Nature of the assay: Inhibition of Pak4.
In assay [10] the target is Serine/threonine-protein kinase pim-2 (Homo sapiens, UniProt Q9P1W9). Nature of the assay: Inhibition of Pim-2.
Assay [11] can be described thus: Inhibition of p38.
Assay [12] has as its target Proto-oncogene tyrosine-protein kinase Src (Homo sapiens, UniProt P12931). Nature of the assay: Inhibition of Src.
The target of assay [13] is Fibroblast growth factor receptor 1 (Homo sapiens, UniProt P11362). Nature of the assay: Inhibition of FGFR1.
Assay [14] can be described thus: Inhibition of PKA.
The target in assay [15] is Casein kinase I isoform delta (Homo sapiens, UniProt P48730). Nature of the assay: Inhibition of CK1delta.
In assay [16] the target is T3, Tyrosine-protein kinase Mer (Homo sapiens, UniProt Q12866).
T3 sequence (Q12866 whole entry): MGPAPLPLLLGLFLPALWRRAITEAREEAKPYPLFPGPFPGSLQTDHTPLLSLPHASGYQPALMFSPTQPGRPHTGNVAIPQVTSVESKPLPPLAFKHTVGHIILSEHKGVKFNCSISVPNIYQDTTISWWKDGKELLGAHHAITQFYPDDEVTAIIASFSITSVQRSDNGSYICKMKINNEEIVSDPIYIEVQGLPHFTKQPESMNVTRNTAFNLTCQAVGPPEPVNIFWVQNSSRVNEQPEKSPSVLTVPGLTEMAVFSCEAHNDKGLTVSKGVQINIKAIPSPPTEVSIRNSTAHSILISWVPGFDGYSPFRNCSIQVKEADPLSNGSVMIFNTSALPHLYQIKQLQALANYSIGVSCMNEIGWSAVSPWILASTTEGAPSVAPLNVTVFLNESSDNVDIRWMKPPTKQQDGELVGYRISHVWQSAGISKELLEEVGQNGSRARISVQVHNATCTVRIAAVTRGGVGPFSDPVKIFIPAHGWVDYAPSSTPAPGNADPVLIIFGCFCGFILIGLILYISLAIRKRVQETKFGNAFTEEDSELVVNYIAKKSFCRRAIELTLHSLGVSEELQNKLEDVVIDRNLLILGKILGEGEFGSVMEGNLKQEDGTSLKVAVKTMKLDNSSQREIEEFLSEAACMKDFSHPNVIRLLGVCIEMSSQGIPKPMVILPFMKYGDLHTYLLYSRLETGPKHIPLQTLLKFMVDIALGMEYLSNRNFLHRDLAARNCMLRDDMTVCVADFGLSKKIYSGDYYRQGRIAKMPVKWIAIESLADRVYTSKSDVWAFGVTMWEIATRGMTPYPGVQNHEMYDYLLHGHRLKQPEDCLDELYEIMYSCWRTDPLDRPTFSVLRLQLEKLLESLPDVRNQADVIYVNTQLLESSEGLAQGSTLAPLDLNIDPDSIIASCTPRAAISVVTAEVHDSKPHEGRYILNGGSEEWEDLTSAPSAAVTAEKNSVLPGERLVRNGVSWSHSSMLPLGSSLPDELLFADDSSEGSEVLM
Nature of the assay: Inhibition of Mer.

Some results are limits rather than exact numbers.

Sequence of Tyrosine-protein kinase ABL1 (P00519 whole entry): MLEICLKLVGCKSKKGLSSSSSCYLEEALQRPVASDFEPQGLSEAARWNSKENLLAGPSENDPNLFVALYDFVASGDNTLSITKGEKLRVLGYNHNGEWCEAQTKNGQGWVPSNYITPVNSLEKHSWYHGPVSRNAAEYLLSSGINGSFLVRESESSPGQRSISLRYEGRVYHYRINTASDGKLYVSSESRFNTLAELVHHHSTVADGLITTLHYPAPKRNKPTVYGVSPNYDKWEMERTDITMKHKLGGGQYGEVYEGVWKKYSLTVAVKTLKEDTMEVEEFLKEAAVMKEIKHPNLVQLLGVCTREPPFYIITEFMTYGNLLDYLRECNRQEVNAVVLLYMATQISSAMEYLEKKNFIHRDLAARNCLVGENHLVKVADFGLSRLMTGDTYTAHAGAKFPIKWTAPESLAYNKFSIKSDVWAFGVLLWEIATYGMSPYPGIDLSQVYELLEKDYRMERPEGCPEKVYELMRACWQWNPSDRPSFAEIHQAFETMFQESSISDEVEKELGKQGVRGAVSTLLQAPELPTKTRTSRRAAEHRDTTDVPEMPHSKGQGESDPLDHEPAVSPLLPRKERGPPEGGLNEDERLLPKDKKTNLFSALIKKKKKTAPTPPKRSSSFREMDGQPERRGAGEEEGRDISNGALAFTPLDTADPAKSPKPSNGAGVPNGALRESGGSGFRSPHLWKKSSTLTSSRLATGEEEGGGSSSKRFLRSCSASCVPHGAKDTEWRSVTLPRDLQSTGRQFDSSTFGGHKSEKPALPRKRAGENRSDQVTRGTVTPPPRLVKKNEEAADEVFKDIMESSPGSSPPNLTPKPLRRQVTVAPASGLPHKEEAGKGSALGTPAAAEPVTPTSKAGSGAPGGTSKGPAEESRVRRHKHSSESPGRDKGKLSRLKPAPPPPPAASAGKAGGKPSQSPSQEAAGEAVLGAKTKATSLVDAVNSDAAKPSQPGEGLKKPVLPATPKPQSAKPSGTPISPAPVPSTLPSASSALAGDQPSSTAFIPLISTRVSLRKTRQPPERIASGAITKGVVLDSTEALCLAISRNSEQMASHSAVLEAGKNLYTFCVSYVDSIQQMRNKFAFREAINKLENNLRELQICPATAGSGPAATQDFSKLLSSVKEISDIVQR
Sequence of Proto-oncogene tyrosine-protein kinase Src (P12931 2-536 limits assumed): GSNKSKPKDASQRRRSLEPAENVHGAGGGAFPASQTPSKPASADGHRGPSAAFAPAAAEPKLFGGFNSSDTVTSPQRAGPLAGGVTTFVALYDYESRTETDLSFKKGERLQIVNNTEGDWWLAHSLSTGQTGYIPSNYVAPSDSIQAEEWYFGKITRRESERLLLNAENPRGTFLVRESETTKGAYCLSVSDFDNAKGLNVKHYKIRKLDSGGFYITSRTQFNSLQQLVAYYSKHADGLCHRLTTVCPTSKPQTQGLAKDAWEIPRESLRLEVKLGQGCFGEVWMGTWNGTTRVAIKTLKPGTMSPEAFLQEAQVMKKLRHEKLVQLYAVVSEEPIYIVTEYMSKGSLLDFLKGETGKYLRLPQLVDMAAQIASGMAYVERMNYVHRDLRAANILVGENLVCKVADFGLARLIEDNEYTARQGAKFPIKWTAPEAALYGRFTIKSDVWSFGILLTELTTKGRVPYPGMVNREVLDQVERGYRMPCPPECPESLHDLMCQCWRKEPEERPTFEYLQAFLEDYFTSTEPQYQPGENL
Sequence of Casein kinase I isoform delta (P48730 whole entry, canonical isoform): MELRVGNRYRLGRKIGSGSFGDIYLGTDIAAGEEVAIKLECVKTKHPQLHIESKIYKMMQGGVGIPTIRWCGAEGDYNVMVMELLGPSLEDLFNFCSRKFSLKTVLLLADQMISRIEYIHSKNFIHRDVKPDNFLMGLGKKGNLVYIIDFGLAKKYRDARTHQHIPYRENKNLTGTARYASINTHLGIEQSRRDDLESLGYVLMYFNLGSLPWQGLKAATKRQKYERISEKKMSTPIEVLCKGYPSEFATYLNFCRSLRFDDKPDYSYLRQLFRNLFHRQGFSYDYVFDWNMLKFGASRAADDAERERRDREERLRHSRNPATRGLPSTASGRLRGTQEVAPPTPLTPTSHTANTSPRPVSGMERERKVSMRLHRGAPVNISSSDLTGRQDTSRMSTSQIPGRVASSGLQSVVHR
Sequence of Serine/threonine-protein kinase pim-2 (Q9P1W9 whole entry): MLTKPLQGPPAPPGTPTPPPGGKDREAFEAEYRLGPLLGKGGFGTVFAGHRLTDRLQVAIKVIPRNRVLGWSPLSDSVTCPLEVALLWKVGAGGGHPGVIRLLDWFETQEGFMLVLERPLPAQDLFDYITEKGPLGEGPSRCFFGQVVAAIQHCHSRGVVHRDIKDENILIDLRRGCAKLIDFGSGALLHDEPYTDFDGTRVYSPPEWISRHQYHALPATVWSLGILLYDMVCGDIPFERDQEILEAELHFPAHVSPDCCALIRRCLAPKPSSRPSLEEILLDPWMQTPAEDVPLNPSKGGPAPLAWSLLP
Sequence of Serine/threonine-protein kinase Chk2 (O96017 whole entry): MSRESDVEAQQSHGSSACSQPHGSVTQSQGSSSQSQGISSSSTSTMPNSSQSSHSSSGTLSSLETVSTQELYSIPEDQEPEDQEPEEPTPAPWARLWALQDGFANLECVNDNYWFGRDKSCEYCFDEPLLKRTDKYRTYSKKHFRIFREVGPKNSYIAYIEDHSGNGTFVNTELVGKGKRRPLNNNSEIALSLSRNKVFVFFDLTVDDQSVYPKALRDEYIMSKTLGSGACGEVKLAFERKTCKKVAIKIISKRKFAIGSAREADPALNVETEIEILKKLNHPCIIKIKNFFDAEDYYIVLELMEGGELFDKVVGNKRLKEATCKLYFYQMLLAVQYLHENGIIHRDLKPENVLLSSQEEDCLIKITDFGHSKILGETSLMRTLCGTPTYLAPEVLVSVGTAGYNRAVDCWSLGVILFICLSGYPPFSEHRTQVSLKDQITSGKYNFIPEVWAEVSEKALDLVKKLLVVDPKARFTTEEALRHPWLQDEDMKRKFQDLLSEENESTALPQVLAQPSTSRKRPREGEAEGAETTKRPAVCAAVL
Sequence of MAP kinase-activated protein kinase 2 (P49137 whole entry): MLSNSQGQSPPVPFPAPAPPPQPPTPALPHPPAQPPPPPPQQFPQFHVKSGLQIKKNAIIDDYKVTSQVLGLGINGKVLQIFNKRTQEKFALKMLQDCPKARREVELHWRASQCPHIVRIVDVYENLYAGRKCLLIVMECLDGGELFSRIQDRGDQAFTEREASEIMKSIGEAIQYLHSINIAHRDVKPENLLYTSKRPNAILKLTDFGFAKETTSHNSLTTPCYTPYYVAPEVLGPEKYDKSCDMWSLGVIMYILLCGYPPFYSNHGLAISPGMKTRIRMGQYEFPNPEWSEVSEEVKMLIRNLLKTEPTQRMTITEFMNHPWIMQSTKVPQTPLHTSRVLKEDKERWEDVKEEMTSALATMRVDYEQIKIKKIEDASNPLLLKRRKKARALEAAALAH
Sequence of Fibroblast growth factor receptor 1 (P11362 whole entry): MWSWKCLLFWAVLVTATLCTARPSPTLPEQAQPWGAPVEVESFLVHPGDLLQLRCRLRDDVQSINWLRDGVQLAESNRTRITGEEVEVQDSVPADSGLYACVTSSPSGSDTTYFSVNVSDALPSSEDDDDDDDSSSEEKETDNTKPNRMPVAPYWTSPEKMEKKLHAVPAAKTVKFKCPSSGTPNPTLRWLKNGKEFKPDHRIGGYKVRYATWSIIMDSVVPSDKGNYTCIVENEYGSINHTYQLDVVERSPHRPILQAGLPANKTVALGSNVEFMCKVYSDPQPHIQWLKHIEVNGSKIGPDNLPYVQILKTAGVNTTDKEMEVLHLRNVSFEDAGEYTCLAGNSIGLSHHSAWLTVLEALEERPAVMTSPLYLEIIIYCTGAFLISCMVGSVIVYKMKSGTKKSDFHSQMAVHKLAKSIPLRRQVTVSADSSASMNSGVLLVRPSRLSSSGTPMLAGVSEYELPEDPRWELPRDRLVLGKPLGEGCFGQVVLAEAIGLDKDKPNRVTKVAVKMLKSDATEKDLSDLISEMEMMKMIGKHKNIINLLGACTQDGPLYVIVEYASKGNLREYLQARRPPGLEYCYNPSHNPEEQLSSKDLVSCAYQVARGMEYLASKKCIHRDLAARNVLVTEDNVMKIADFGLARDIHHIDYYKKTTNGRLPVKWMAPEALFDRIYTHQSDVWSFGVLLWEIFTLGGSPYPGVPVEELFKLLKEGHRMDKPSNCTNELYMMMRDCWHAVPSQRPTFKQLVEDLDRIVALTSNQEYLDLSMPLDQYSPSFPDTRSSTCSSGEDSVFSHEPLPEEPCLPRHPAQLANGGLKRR
Sequence of Serine/threonine-protein kinase PAK 4 (O96013 whole entry): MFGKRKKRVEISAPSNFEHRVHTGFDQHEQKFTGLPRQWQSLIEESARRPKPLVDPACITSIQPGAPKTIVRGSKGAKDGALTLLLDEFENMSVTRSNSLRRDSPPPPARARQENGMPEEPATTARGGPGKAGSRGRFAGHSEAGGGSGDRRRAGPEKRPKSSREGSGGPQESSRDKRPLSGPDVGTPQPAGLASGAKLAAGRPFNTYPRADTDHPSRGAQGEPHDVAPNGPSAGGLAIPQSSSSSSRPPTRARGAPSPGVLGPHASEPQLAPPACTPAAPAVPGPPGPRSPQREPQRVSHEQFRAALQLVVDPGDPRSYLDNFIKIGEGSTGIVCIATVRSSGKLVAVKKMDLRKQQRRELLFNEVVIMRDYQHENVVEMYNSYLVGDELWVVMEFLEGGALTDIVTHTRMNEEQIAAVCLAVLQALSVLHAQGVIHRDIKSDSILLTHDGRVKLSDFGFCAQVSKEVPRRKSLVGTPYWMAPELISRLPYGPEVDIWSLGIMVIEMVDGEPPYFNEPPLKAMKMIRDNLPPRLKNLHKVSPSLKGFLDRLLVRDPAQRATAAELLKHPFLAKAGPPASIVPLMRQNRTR

For the compound `C[C@@H]1CCC(N2CC[C@]3(CN(C(=O)c4cc5ccc(F)cc5[nH]4)c4ccccc43)C2)CN1` (stereo partly drawn), the IC50 in [1], in [2], in [3], in assay [4], in assay [5] and in assay [6] was more than 30 µM each time. Besides, the IC50 in assay [7], in [8], in assay [9], in assay [10], in assay [11] and in assay [12] was more than 30 µM each time. Further, the IC50 in [13] is 22.7 µM; in [14] it was 28.6 µM; in [15], 1.73 µM; in assay [16], 0.97 µM.
Consider `C[C@@H]1CCC(N2CC[C@]3(CN(C(=O)c4cc5ccccc5[nH]4)c4ccccc43)C2)CN1` (stereo partly drawn), for which the IC50 in assay [1], in assay [2], in assay [3], in assay [4], in assay [5] and in [6] was more than 30 µM each time. The IC50 in assay [7], in assay [8], in assay [9], in assay [10], in [11] and in [12] was more than 30 µM throughout. The IC50 in assay [13] is more than 30 µM; in assay [14] it was more than 30 µM; in assay [15] it was 6.61 µM; in [16] it was 2.34 µM.
On to `O=C(c1cc2cc(F)ccc2[nH]1)N1C[C@]2(CCN(C3CCCNC3)C2)c2ccccc21` (stereo partly drawn), for which the IC50 in [1], in assay [2], in assay [3], in [4], in assay [5] and in assay [6] was more than 30 µM in each case. Moreover, the 50% inhibitory concentration (IC50) in assay [7], in assay [8], in assay [9], in assay [10], in [11] and in assay [12] was more than 30 µM throughout. The IC50 in assay [13] is more than 30 µM; in assay [14], more than 30 µM; in assay [16] it was 6.93 µM.
For the compound `O=C(c1cc2ccc(F)cc2[nH]1)N1C[C@]2(CCN(C3CCNC3)C2)c2ccccc21` (stereo partly drawn), the IC50 in assay [1], in [2], in [3], in [4], in [5] and in [6] was more than 30 µM each time. Also, the IC50 in [7], in [8], in [9], in [10], in assay [11] and in assay [12] was more than 30 µM in each case. The IC50 is more than 30 µM in assay [13], more than 30 µM in assay [14], 11 µM in assay [15] and 2.44 µM in [16].
